# Measured values from paper PMC11420776 (RSC Advances, 2024).
# Tests used:
# HCC-2998 (colon cancer) = experiment: NCI 60-cell one-dose antiproliferative screen; type: cell-based, human; settings: one dose 10 μM
# [1] = tested on: MDA-MB-468 (breast cancer); experiment: NCI 60-cell one-dose antiproliferative screen; type: cell-based, human; settings: one dose 10 μM
# IGROV1 (ovarian cancer) = experiment: NCI 60-cell one-dose antiproliferative screen; type: cell-based, human; settings: one dose 10 μM
# SK-MEL-28 (melanoma) = experiment: NCI 60-cell one-dose antiproliferative screen; type: cell-based, human; settings: one dose 10 μM
# ACHN (renal cancer) = experiment: NCI 60-cell one-dose antiproliferative screen; type: cell-based, human; settings: one dose 10 μM
# HT29 (colon cancer) = experiment: NCI 60-cell one-dose antiproliferative screen; type: cell-based, human; settings: one dose 10 μM
# [2] = tested on: NCI-H23 (NSC lung cancer); experiment: NCI 60-cell one-dose antiproliferative screen; type: cell-based, human; settings: one dose 10 μM
# [3] = tested on: NCI-H522 (NSC lung cancer); experiment: NCI 60-cell one-dose antiproliferative screen; type: cell-based, human; settings: one dose 10 μM
# HOP-92 (NSC lung cancer) = experiment: NCI 60-cell one-dose antiproliferative screen; type: cell-based, human; settings: one dose 10 μM
# PC-3 (prostate cancer) = experiment: NCI 60-cell one-dose antiproliferative screen; type: cell-based, human; settings: one dose 10 μM
# HS 578T (breast cancer) = experiment: NCI 60-cell one-dose antiproliferative screen; type: cell-based, human; settings: one dose 10 μM
# CCRF-CEM (leukemia) = experiment: NCI 60-cell one-dose antiproliferative screen; type: cell-based, human; settings: one dose 10 μM
# MDA-MB-435 (melanoma) = experiment: NCI 60-cell one-dose antiproliferative screen; type: cell-based, human; settings: one dose 10 μM
# SF-539 (CNS cancer) = experiment: NCI 60-cell one-dose antiproliferative screen; type: cell-based, human; settings: one dose 10 μM
# CAKI-1 (renal cancer) = experiment: NCI 60-cell one-dose antiproliferative screen; type: cell-based, human; settings: one dose 10 μM
# UO-31 (renal cancer) = experiment: NCI 60-cell one-dose antiproliferative screen; type: cell-based, human; settings: one dose 10 μM
# MALME-3M (melanoma) = experiment: NCI 60-cell one-dose antiproliferative screen; type: cell-based, human; settings: one dose 10 μM
# HCT-116 (colon cancer) = experiment: NCI 60-cell one-dose antiproliferative screen; type: cell-based, human; settings: one dose 10 μM
# LOX IMIV (melanoma) = experiment: NCI 60-cell one-dose antiproliferative screen; type: cell-based, human; settings: one dose 10 μM
# UACC-257 (melanoma) = experiment: NCI 60-cell one-dose antiproliferative screen; type: cell-based, human; settings: one dose 10 μM
# SK-MEL-2 (melanoma) = experiment: NCI 60-cell one-dose antiproliferative screen; type: cell-based, human; settings: one dose 10 μM
# [4] = tested on: MDA-MB-231/ATCC (breast cancer); experiment: NCI 60-cell one-dose antiproliferative screen; type: cell-based, human; settings: one dose 10 μM
# MCF7 (breast cancer) = experiment: NCI 60-cell one-dose antiproliferative screen; type: cell-based, human; settings: one dose 10 μM
# RXF 393 (renal cancer) = experiment: NCI 60-cell one-dose antiproliferative screen; type: cell-based, human; settings: one dose 10 μM
# A498 (renal cancer) = experiment: NCI 60-cell one-dose antiproliferative screen; type: cell-based, human; settings: one dose 10 μM
# OVCAR-8 (ovarian cancer) = experiment: NCI 60-cell one-dose antiproliferative screen; type: cell-based, human; settings: one dose 10 μM
# HOP-62 (NSC lung cancer) = experiment: NCI 60-cell one-dose antiproliferative screen; type: cell-based, human; settings: one dose 10 μM
# [5] = tested on: A549/ATCC (NSC lung cancer); experiment: NCI 60-cell one-dose antiproliferative screen; type: cell-based, human; settings: one dose 10 μM
# M14 (melanoma) = experiment: NCI 60-cell one-dose antiproliferative screen; type: cell-based, human; settings: one dose 10 μM
# [6] = tested on: NCI-H460 (NSC lung cancer); experiment: NCI 60-cell one-dose antiproliferative screen; type: cell-based, human; settings: one dose 10 μM
# [7] = tested on: NCI/ADR-RES (ovarian cancer); experiment: NCI 60-cell one-dose antiproliferative screen; type: cell-based, human; settings: one dose 10 μM
# [8] = tested on: 60 human tumor cell lines; experiment: NCI 60-cell one-dose antiproliferative screen, whole panel; type: cell-based
# SF-295 (CNS cancer) = experiment: NCI 60-cell one-dose antiproliferative screen; type: cell-based, human; settings: one dose 10 μM
# TK-10 (renal cancer) = experiment: NCI 60-cell one-dose antiproliferative screen; type: cell-based, human; settings: one dose 10 μM
# COLO-205 (colon cancer) = experiment: NCI 60-cell one-dose antiproliferative screen; type: cell-based, human; settings: one dose 10 μM
# SNB-19 (CNS cancer) = experiment: NCI 60-cell one-dose antiproliferative screen; type: cell-based, human; settings: one dose 10 μM
# U251 (CNS cancer) = experiment: NCI 60-cell one-dose antiproliferative screen; type: cell-based, human; settings: one dose 10 μM
# EKVX (NSC lung cancer) = experiment: NCI 60-cell one-dose antiproliferative screen; type: cell-based, human; settings: one dose 10 μM
# 786-0 (renal cancer) = experiment: NCI 60-cell one-dose antiproliferative screen; type: cell-based, human; settings: one dose 10 μM
# [9] = tested on: NCI-H322M (NSC lung cancer); experiment: NCI 60-cell one-dose antiproliferative screen; type: cell-based, human; settings: one dose 10 μM
# OVCAR-5 (ovarian cancer) = experiment: NCI 60-cell one-dose antiproliferative screen; type: cell-based, human; settings: one dose 10 μM
# OVCAR-3 (ovarian cancer) = experiment: NCI 60-cell one-dose antiproliferative screen; type: cell-based, human; settings: one dose 10 μM
# UACC-62 (melanoma) = experiment: NCI 60-cell one-dose antiproliferative screen; type: cell-based, human; settings: one dose 10 μM
# T-47D (breast cancer) = experiment: NCI 60-cell one-dose antiproliferative screen; type: cell-based, human; settings: one dose 10 μM
# SNB-75 (CNS cancer) = experiment: NCI 60-cell one-dose antiproliferative screen; type: cell-based, human; settings: one dose 10 μM
# SK-OV-3 (ovarian cancer) = experiment: NCI 60-cell one-dose antiproliferative screen; type: cell-based, human; settings: one dose 10 μM
# OVCAR-4 (ovarian cancer) = experiment: NCI 60-cell one-dose antiproliferative screen; type: cell-based, human; settings: one dose 10 μM
# DU-145 (prostate cancer) = experiment: NCI 60-cell one-dose antiproliferative screen; type: cell-based, human; settings: one dose 10 μM
# SF-268 (CNS cancer) = experiment: NCI 60-cell one-dose antiproliferative screen; type: cell-based, human; settings: one dose 10 μM
# KM12 (colon cancer) = experiment: NCI 60-cell one-dose antiproliferative screen; type: cell-based, human; settings: one dose 10 μM
# [10] = tested on: NCI-H226 (NSC lung cancer); experiment: NCI 60-cell one-dose antiproliferative screen; type: cell-based, human; settings: one dose 10 μM
# HCT-15 (colon cancer) = experiment: NCI 60-cell one-dose antiproliferative screen; type: cell-based, human; settings: one dose 10 μM
# RPMI-8226 (leukemia) = experiment: NCI 60-cell one-dose antiproliferative screen; type: cell-based, human; settings: one dose 10 μM
# SN12C (renal cancer) = experiment: NCI 60-cell one-dose antiproliferative screen; type: cell-based, human; settings: one dose 10 μM
# SW-620 (colon cancer) = experiment: NCI 60-cell one-dose antiproliferative screen; type: cell-based, human; settings: one dose 10 μM
smiles,measurement,setting,value
"CC(=O)NNc1ccc2nnc(-c3ccccc3)n2n1 [Compound 6a, N′-(3-Phenyl-[1,2,4]triazolo[4,3-b]pyridazin-6-yl)acetohydrazide]",GI%,HCC-2998 (colon cancer),— (— GI% is below 15%)
same,GI%,[1],— (— GI% is below 15%)
same,GI%,IGROV1 (ovarian cancer),— (— GI% is below 15%)
same,GI%,SK-MEL-28 (melanoma),— (— GI% is below 15%)
same,GI%,ACHN (renal cancer),— (— GI% is below 15%)
same,GI%,HT29 (colon cancer),— (— GI% is below 15%)
same,GI%,[2],— (— GI% is below 15%)
same,GI%,[3],— (— GI% is below 15%)
same,GI%,HOP-92 (NSC lung cancer),— (— GI% is below 15%)
same,GI%,PC-3 (prostate cancer),— (— GI% is below 15%)
same,GI%,HS 578T (breast cancer),— (— GI% is below 15%)
same,GI%,CCRF-CEM (leukemia),— (— GI% is below 15%)
same,GI%,MDA-MB-435 (melanoma),— (— GI% is below 15%)
same,GI%,SF-539 (CNS cancer),— (— GI% is below 15%)
same,GI%,CAKI-1 (renal cancer),— (— GI% is below 15%)
same,GI%,UO-31 (renal cancer),— (— GI% is below 15%)
same,GI%,MALME-3M (melanoma),— (— GI% is below 15%)
same,GI%,HCT-116 (colon cancer),— (— GI% is below 15%)
same,GI%,LOX IMIV (melanoma),— (— GI% is below 15%)
same,GI%,UACC-257 (melanoma),— (— GI% is below 15%)
same,GI%,SK-MEL-2 (melanoma),— (— GI% is below 15%)
same,GI%,[4],— (— GI% is below 15%)
same,GI%,MCF7 (breast cancer),— (— GI% is below 15%)
same,GI%,RXF 393 (renal cancer),— (— GI% is below 15%)
same,GI%,A498 (renal cancer),— (— GI% is below 15%)
same,GI%,OVCAR-8 (ovarian cancer),— (— GI% is below 15%)
same,GI%,HOP-62 (NSC lung cancer),— (— GI% is below 15%)
same,GI%,[5],— (— GI% is below 15%)
same,GI%,M14 (melanoma),— (— GI% is below 15%)
same,GI%,[6],— (— GI% is below 15%)
same,GI%,[7],— (— GI% is below 15%)
same,inhibition at 10 µM,"[8]; Homo sapiens, 60 cell, read-out: Mean inhibition (mean GI%)",< 15%
same,cytotoxic activity in words,"[8]; NCI-60 panel, one dose 10 μM",demolished cytotoxicity
same,GI%,SF-295 (CNS cancer),— (— GI% is below 15%)
same,GI%,TK-10 (renal cancer),— (— GI% is below 15%)
same,GI%,COLO-205 (colon cancer),— (— GI% is below 15%)
same,GI%,SNB-19 (CNS cancer),— (— GI% is below 15%)
same,GI%,U251 (CNS cancer),— (— GI% is below 15%)
same,GI%,EKVX (NSC lung cancer),— (— GI% is below 15%)
same,GI%,786-0 (renal cancer),— (— GI% is below 15%)
same,GI%,[9],— (— GI% is below 15%)
same,GI%,OVCAR-5 (ovarian cancer),— (— GI% is below 15%)
same,GI%,OVCAR-3 (ovarian cancer),— (— GI% is below 15%)
same,GI%,UACC-62 (melanoma),— (— GI% is below 15%)
same,GI%,T-47D (breast cancer),— (— GI% is below 15%)
same,GI%,SNB-75 (CNS cancer),— (— GI% is below 15%)
same,GI%,SK-OV-3 (ovarian cancer),— (— GI% is below 15%)
same,GI%,OVCAR-4 (ovarian cancer),— (— GI% is below 15%)
same,GI%,DU-145 (prostate cancer),— (— GI% is below 15%)
same,GI%,SF-268 (CNS cancer),— (— GI% is below 15%)
same,GI%,KM12 (colon cancer),— (— GI% is below 15%)
same,GI%,[10],— (— GI% is below 15%)
same,GI%,HCT-15 (colon cancer),— (— GI% is below 15%)
same,GI%,RPMI-8226 (leukemia),— (— GI% is below 15%)
same,GI%,SN12C (renal cancer),— (— GI% is below 15%)
same,GI%,SW-620 (colon cancer),— (— GI% is below 15%)
